This note sets out measurements from EPA's ToxValDB 9.5 (doi:10.2903/j.efsa.2016.4612).

One data set has as its system Folsomia candida. The following applies: chronic/long-term; duration: 28 days; reproduction.
Another data set concerns Tagia sp. To be noted: chronic/long-term; duration: 56 days.
The test system of another data set is Landoltia sp. To be noted: acute; duration: 7 days; other.
In the next data set the test system is Lepomis macrochirus. The following applies: acute; duration: 96 hours; mortality.
Another data set has as its system Rattus norvegicus. To be noted: for LD50: acute, gavage, mortality.
A further data set concerns Apis mellifera. To be noted: acute, duration: 48 hours, mortality.
In another data set the test system is Colinus virginianus. To be noted: oral.
Another data set relates to Daphnia magna. To be noted: chronic/long-term; duration: 21 days; reproduction.
For the next data set, the system named is Oncorhynchus mykiss. The following applies: acute; duration: 96 hours; mortality.
In a further data set the test system is Oryctolagus sp. The following applies: reproduction developmental; clinical signs.
The subject of another data set is Pimephales promelas. The following applies: chronic/long-term; duration: 35 days; reproduction.

The structures appear in SMILES notation.

For the compound `CCCOc1nn(C(N)=O)c(=O)n1C`, the NOEC in the data set with Folsomia candida stood at 10 mg/kg; with Tagia sp. it was 316 mg/kg.
The compound `CCCOc1nn(C(=O)NS(=O)(=O)c2ccccc2C(=O)O)c(=O)n1C` registered an NOEC with Landoltia sp. of 14.2 mg/L. Besides, the LC50 in the data set on Lepomis macrochirus was greater than 87.7 µg/mL.
Take `O=C1NS(=O)(=O)c2cccc(O)c21` [4-hydroxy-1H-1,2-benzisothiazole-1,1,3(2H)-trione]: the NOEC was 10 mg/kg in the data set with Folsomia candida and 5 mg/kg in the data set with Tagia sp..
`COC(=O)c1ccccc1S(=O)(=O)NC(=O)n1nc(OCC(C)O)n(C)c1=O` (stereo not given) [Propoxycarbazone-2-hydroxypropoxy]: the LD50 in the data set on Rattus norvegicus (oral) was greater than 5000 mg/kg-day. In the data set on Rattus norvegicus (short-term, duration: 28 days, oral, diet), this compound gave a no observed adverse effect level (NOAEL) greater than 880 mg/kg-day.
As for `CCCOc1nn(C(=O)[N-]S(=O)(=O)c2ccccc2C(=O)OC)c(=O)n1C.[Na+]` [Propoxycarbazone-sodium], the LD50 was greater than 100 µg/piece with Apis mellifera (dermal); greater than 110 µg/piece with Apis mellifera (oral, unspecified); greater than 2000 mg/kg-day in the data set with Colinus virginianus (acute, mortality); greater than 5000 mg/kg-day in the data set on Rattus norvegicus (oral). Further, the NOEL in the data set on Colinus virginianus (reproduction developmental, duration: 25 weeks, diet, reproduction) amounted to 45 mg/kg-day. For the same compound, the NOEC came to 13.8 mg/L in the data set with Daphnia magna, 500 mg/kg in the data set on Folsomia candida, 5.83 mg/L in the data set on Pimephales promelas and 1.25 mg/kg in the data set on Tagia sp.. This compound also had an LC50 with Oncorhynchus mykiss greater than 77.2 µg/mL. Also, the NOAEL was found to be 100 mg/kg-day in the data set on Oryctolagus sp. and 43 mg/kg-day with Rattus norvegicus (chronic, duration: 2 years, clinical chemistry).

The LC50 is the concentration lethal to half of the exposed cells or organisms. By NOAEL is commonly meant the highest dose or exposure tested at which no adverse effect was seen.
